“And” between values parts separate entries of the source, which are not always exact repeats. Equal values may be shown once.
Conditions: instrument: DT, stepped-field

| collision cross section (N2) ([M+H]+) | collision cross section (N2) ([M+Na]+) | collision cross section (N2) ([M]+) | SMILES |
| --- | --- | --- | --- |
| 157.67 Å² | 160.83 Å² | – | Nc1c(O)cccc1C(=O)CC(N)C(=O)O (racemic) [3-Hydroxy-DL-kynurenine] |
| – | 205.43 Å² | – | OC[C@H]1O[C@@](CO)(OC[C@@]2(O[C@H]3O[C@H](CO)[C@@H](O)[C@H](O)[C@H]3O)O[C@H](CO)[C@@H](O)[C@@H]2O)[C@@H](O)[C@@H]1O [1-Kestose] |
| 178.96 Å² | 173.87 Å² | – | Nc1nc(=O)c2ncn([C@H]3C[C@H](O)[C@@H](COP(=O)(O)O)O3)c2[nH]1 [2'-Deoxyguanosine 5'-Monophosphate] |
| 136.57 Å² | – | – | Cn1cncc1C[C@H](N)C(=O)O [3-Methyl-L-histidine] |
| 145.34 Å² | – | – | Cc1ncsc1CCO [4-Methyl-5-Thiazolethanol] |
| – | 186.83 Å² | – | CCCCC/C=C/C/C=C\C[C@@H]1O[C@@H]1C/C=C\CCCC(=O)O [8(9)-EET] |
| – | 187.17 Å² | – | CCCCC/C=C\C/C=C\C=C\[C@@H](O)C/C=C\CCCC(=O)O [8S-HETE] |
| 184.2 Å² | 199.5 Å² | – | CCCCC/C=C\C=C\C(=O)CCCCCCCC(=O)O [9-OxoODE] |
| – | 187.87 Å² | – | CCCCC/C=C\C[C@H]1O[C@H]1C/C=C\C/C=C\CCCC(=O)O [11(12)-EET] |
| – | 193.33 Å² | – | CCCCC/C=C\C[C@H](O)/C=C/C=C\C/C=C\CCCC(=O)O [12S-HETE] |
| 167.06 Å² | – | – | COc1ccc(-c2cc(=O)c3c(O)cc(O)cc3o2)cc1 [Acacetin] |
| 189.41 Å² | 192.83 Å² | – | CCCCC/C=C\C/C=C\C/C=C\C/C=C\CCCCCC(=O)O [Adrenic Acid] |
| 193.17 Å² | 187.93 Å² | – | CC1(C)S[C@@H]2[C@H](NC(=O)[C@H](N)c3ccccc3)C(=O)N2[C@H]1C(=O)O [Ampicillin] |
| 167.39 Å² | 172.22 Å² | – | NC(=NCCC[C@H](N)C(=O)O)N[C@@H](CC(=O)O)C(=O)O [Argininosuccinic Acid] |
| – | 183.38 Å² | – | CCCCC/C=C\C/C=C\C/C=C\CCCCCCC(=O)O [Bishomo-gamma-linolenic Acid] |
| 142.8 Å² | – | – | CC12CCC(CC1=O)C2(C)C (stereo not drawn) [Camphor] |
| 152.18 Å² | – | – | NCCC(=O)N[C@@H](Cc1cnc[nH]1)C(=O)O [Carnosine] |
| – | 225 Å² | – | OC[C@H]1O[C@@H](O[C@H]2[C@H](O)[C@@H](O)[C@H](O[C@H]3[C@H](O)[C@@H](O)[C@H](O[C@H]4[C@H](O)[C@@H](O)C(O)O[C@@H]4CO)O[C@@H]3CO)O[C@@H]2CO)[C@H](O)[C@@H](O)[C@@H]1O (stereo partly drawn) [Cellotetraose] |
| 148.9 Å² | 146.11 Å² | – | O=C(O)CC(O)(CC(=O)O)C(=O)O [Citric Acid] |

| collision cross section (N2) ([M+H]+) | collision cross section (N2) ([M+Na]+) | collision cross section (N2) ([M]+) | SMILES |
| --- | --- | --- | --- |
| – | – | 168.33 Å² | Oc1cc(O)c2cc(O)c(-c3ccc(O)c(O)c3)[o+]c2c1 [Cyanidin] |
| – | 177 Å² | – | OC[C@H]1O[C@H](O[C@H]2[C@H](O)[C@H](O)COC2(O)CO)[C@H](O)[C@@H](O)[C@@H]1O (stereo partly drawn) [D-(+)-Turanose] |
| – | 142.39 Å² | – | OC[C@H]1OC(O)[C@H](O)[C@@H](O)[C@H]1O (stereo partly drawn) [D-Galactose] |
| – | 147.72 Å² | – | OC[C@H]1OC(O)[C@H](O)[C@@H](O)[C@@H]1O (stereo partly drawn) [D-Glucose] |
| – | 153.13 Å² | – | O=C(O)[C@H]1OC(O)[C@H](O)[C@@H](O)[C@@H]1O (stereo partly drawn) [D-Glucuronate] |
| 135.86 Å² | – | – | O=C[C@H](O)COP(=O)(O)O [D-Glyceraldehyde 3-Phosphate] |
| – | 155.8 Å² | – | O=P(O)(O)OC[C@H]1OC(O)[C@H](O)[C@@H]1O (stereo partly drawn) [D-Ribose 5-Phosphate] |
| – | 153.25 Å² | – | O=C(CO)[C@H](O)[C@H](O)COP(=O)(O)O [D-Ribulose 5-Phosphate] |
| – | 151.4 Å² | – | O=C[C@H](O)[C@@H](O)[C@H](O)COP(=O)(O)O [D-Xylose 5-phosphate] |
| – | 141.76 Å² | – | O=C(CO)[C@@H](O)[C@H](O)CO [D-Xylulose] |
| 193.63 Å² | – | – | Nc1nc(=O)c2c([nH]1)NCC(CNc1ccc(C(=O)N[C@@H](CCC(=O)O)C(=O)O)cc1)=N2 [Dihydrofolate] |
| 128.79 Å² | – | – | Oc1ccc(O)cc1 [Hydroquinone] |
| 130.93 Å² | – | – | O=C(O)[C@@H]1CCCCN1 [L-Pipecolic Acid] |
| 241.9 Å² | – | – | CCCCCCCCCCCCCCCCCCC(=O)OC[C@@H](O)COP(=O)([O-])OCC[N+](C)(C)C [LPC(19:0)] |
| – | 217.5 Å² | – | CCCCCCCCCCCC(=O)O[C@H](CC(=O)[O-])C[N+](C)(C)C [Lauroyl-L-carnitine] |
| – | 196.05 Å² | – | CCCCC/C=C\C[C@@H](O)/C=C/C=C/C=C\[C@@H](O)CCCC(=O)O [Leukotriene B4] |
| 257.4 Å² | 260.57 Å² | – | CCCCC/C=C\C\C=C/C=C/C=C/[C@@H](SC[C@H](NC(=O)CC[C@H](N)C(=O)O)C(=O)NCC(=O)O)[C@@H](O)CCCC(=O)O [Leukotriene C4] |
| – | 197.89 Å² | – | CCCCC[C@H](O)/C=C/C=C\C=C\C=C\[C@@H](O)[C@@H](O)CCCC(=O)O [Lipoxin A4] |
| – | 234.12 Å² | – | OC[C@H]1O[C@@H](O[C@H]2[C@H](O)[C@H](O)[C@H](O[C@H]3[C@H](O)[C@H](O)[C@H](O[C@H]4[C@H](O)[C@H](O)C(O)O[C@@H]4CO)O[C@@H]3CO)O[C@@H]2CO)[C@@H](O)[C@@H](O)[C@@H]1O (stereo partly drawn) [Mannotetraose] |

| collision cross section (N2) ([M+H]+) | collision cross section (N2) ([M+Na]+) | collision cross section (N2) ([M]+) | SMILES |
| --- | --- | --- | --- |
| 187.54 Å² | – | – | CCCCCCCCCCCCCCCCCCCCCCCC(=O)OC [Methyl Tetracosanoate] |
| – | 149.97 Å² | – | CO[C@@H]1O[C@H](CO)[C@H](O)[C@H](O)[C@H]1O [Methyl beta-D-galactoside] |
| – | 154.76 Å² | – | CC(=O)N[C@@H]1C(O)O[C@H](CO)[C@@H](O)[C@@H]1O (stereo partly drawn) [N-Acetyl-D-mannosamine] |
| – | 138.07 Å² | – | CC(=O)N[C@@H](C)C(=O)O [N-Acetyl-L-alanine] |
| 167.96 Å² | – | – | O=C1CC(c2ccc(O)cc2)Oc2cc(O)cc(O)c21 (stereo not drawn) [Naringenin] |
| 222.79 Å² | 232.01 Å² | – | NC(=O)c1ccc[n+]([C@@H]2O[C@H](COP(=O)(O)OP(=O)(O)OC[C@H]3O[C@@H](n4cnc5c(=O)nc[nH]c54)[C@H](O)[C@@H]3O)[C@@H](O)[C@H]2O)c1 [Nicotinamide Hypoxanthine Dinucleotide] |
| 128.35 Å² | – | – | O=C(O)c1cccnc1 [Nicotinic Acid] |
| – | 181.37 Å² | – | CCCCCCCC/C=C\CCCCCCCC(=O)O [Oleic Acid] |
| 167.23 Å² | 165.7 Å² | – | CC[C@H](NC(=O)CC[C@H](N)C(=O)O)C(=O)NCC(=O)O [Ophthalmic Acid] |
| 257.07 Å² | 260.59 Å² | – | CCCCCCCCCCC(=O)OC[C@H](COP(=O)([O-])OCC[N+](C)(C)C)OC(=O)CCCCCCCCCC [PC(11:0/11:0)] |
| 280.6 Å² and 284.02 Å² | 287.57 Å² and 288.54 Å² | – | CCCCCCC/C=C\CCCCCCCC(=O)OC[C@H](COP(=O)(O)OCCN)OC(=O)CCCCCCC/C=C\CCCCCCCCC [PE(18:1/18:1)] |
| – | 177.31 Å² | – | OC[C@H]1O[C@H](OC[C@H]2OC(O)(CO)[C@@H](O)[C@@H]2O)[C@H](O)[C@@H](O)[C@@H]1O (stereo partly drawn) [Palatinose] |
| 134.59 Å² | – | – | O=C1C=Cc2cccc3cccc1c23 [Perinaphthenon] |
| 160.93 Å² | 171.25 Å² | – | NC(=O)CC[C@H](NC(=O)Cc1ccccc1)C(=O)O [Phenylacetyl L-Glutamine] |
| 138.54 Å² | – | – | C[N+](C)(C)CCOP(=O)(O)O [Phosphocholine] |
| 164.24 Å² | – | – | COc1cc(O)c2c(c1)O[C@H](c1ccccc1)CC2=O [Pinostrobin] |
| – | 207.33 Å² | – | CCCCC[C@H](O)/C=C/[C@@H]1[C@@H](C/C=C\CCCC(=O)O)[C@@H](O)C[C@H]1O [Prostaglandin F2 alpha] |
| – | 205.7 Å² | – | CCCCC[C@H](O)/C=C/[C@@H]1[C@@H](C/C=C\CCCC(=O)O)[C@@H](O)C[C@H]1O [Prostaglandin F2a] |

| SMILES | collision cross section (N2) ([M+H]+) | collision cross section (N2) ([M+Na]+) | collision cross section (N2) ([M]+) |
| --- | --- | --- | --- |
| NCCP(=O)(O)O [2-Aminoethylphosphonate] | 132.21 Å² | – | – |
| Cc1ccc2cc3ccccc3cc2c1 [2-Methylanthracene] | 138.61 Å² | – | – |
| Cc1ccc2ccccc2c1 [2-methylnaphthalene] | 124.57 Å² | – | – |
| O=C1C(=O)c2cccc3cccc1c23 [Acenaphthenequinone] | 145.51 Å² | – | – |
| C1=Cc2cccc3cccc1c23 [Acenaphthylene] | 125.71 Å² | – | – |
| c1cncc(C2CCCCN2)c1 (stereo not drawn) [Anabasine] | 140.18 Å² | – | – |
| CCNc1nc(Cl)nc(NC(C)C)n1 [Atrazine] | 150.74 Å² | – | – |
| C1=Cc2c3ccc4ccccc4c3cc3cccc1c23 [Benz(j)aceanthrylene] | 155.08 Å² | – | – |
| c1ccc2c(c1)cc1ccc3cccc4ccc2c1c34 [Benzo(a)Pyrene] | 152.05 Å² | – | – |
| N#Cc1c[nH]cc1-c1cccc2c1OC(F)(F)O2 [Fludioxonil] | – | 165.7 Å² | – |
| CN(C)C(=O)Nc1cccc(C(F)(F)F)c1 [Fluometuron] | 152.2 Å² | 161.2 Å² | – |
| CP(=O)(O)CCC(N)C(=O)O (stereo not drawn) [Glufosinate] | 140.15 Å² | 142.7 Å² | – |

— the C3SDB collision cross section collection
